Consider two compounds from US20080014264A1, “NOVEL PHARMACEUTICAL COMPOSITIONS COMPRISING LEVETIRACETAM” (UCB, S.A., priority 2006, published 2008).

SMILES strings stand for the structures.

The nature of data set [1]: Solubility of the active ingredient. Type of data set: physicochemical. An excerpt: In fact levetiracetam is a very soluble active ingredient, so it is difficult to slow down the release. Moreover another problem consists in the reduction of the release rate, while keeping a reasonable size for a high dose of very soluble active ingredient.
For data set [2] the following is noted: A. J. Gower et al., Eur. J. Pharmacol., 222, 1992; cited from earlier work.

Turning to `CC[C@@H](C(N)=O)N1CCCC1=O` [levetiracetam, (S)-(−)-alpha-ethyl-2-oxo-1-pyrrolidine acetamide], in data set [1], the solubility entry is “very soluble”. In the case of `CC[C@H](C(N)=O)N1CCCC1=O` [(R)-(+)-alpha-ethyl-2-oxo-1-pyrrolidine acetamide], the “activity in the treatment of epilepsy” value in data set [2] is given as “completely lacks activity”.
